{
  "source": "paper PMC4605392",
  "about": "(The international journal of biochemistry & cell biology, 2010)",
  "key": {"[1]": {"biological_target": "T1, hα4β2 AChR (Homo sapiens, UniProt P17787+P43681)", "test": "Equilibrium binding of [3H]imipramine to HEK293-hα4β2 AChR membranes"}, "[2]": {"biological_target": "human α4β2 AChR (Homo sapiens, UniProt P17787+P43681)", "test": "cell-based", "assay_type": "cell-based"}, "[3]": {"conditions": "therapeutic doses, ref Glotzbach and Preskorn, 1982; cited from earlier work"}, "[4]": {"biological_target": "[^3H]imipramine binding sites at the human α4β2 AChR (Homo sapiens, UniProt P17787+P43681)", "conditions": "for ΔG^20: calculated from Ki, Eq. (4), 293 K"}, "[5]": {"conditions": "ref Nangia et al., 1996; cited from earlier work"}, "[6]": {"biological_target": "T1, hα4β2 AChR", "assay_type": "binding", "conditions": "for koff: 20 °C; for kon: kon = koff·Ka"}, "[7]": {"biological_target": "T1, hα4β2 AChR", "test": "Thermodynamic parameters of imipramine binding", "conditions": "for Ea (dissociation process): Arrhenius plot; for ΔH°: van't Hoff plot; for ΔG^20: Eq. (8); for ΔH^+ (enthalpy change of the transition state): Eq. (10)"}, "[8]": {"conditions": "Ki, resting state, absence of k-BTx (no ligand)"}, "[9]": {"conditions": "resting state, absence of k-BTx (no ligand)"}, "[10]": {"conditions": "resting state, absence of k-BTx"}, "[11]": {"conditions": "desensitized state, presence of 1 μM (−)-cytisine"}, "[12]": {"conditions": "resting state, presence of k-BTx"}, "[13]": {"conditions": "Epibatidine treated column (desensitized state)"}, "[14]": {"conditions": "κ-BTx treated column (resting state)"}},
  "note": "“And” between values parts separate entries of the source, which are not always exact repeats. Identical values can stand only once. Counter-ions that a name gives are not always drawn. Like-named read-outs stand apart in the source and are kept apart here.",
  "data": [
    {"molecule": "[^3H]Imipramine", "values": [
      {"measurement": "specific activity (Bmax, imipramine binding sites)", "setting": "[1]; HEK293-hα4β2 membranes, x-intersect of Rosenthal-Scatchard plot", "result": "8.6 ± 0.5", "unit": "pmol/mg protein"},
      {"measurement": "Kd", "setting": "[1]; resting/no ligand state, Rosenthal-Scatchard plot, 2 h at RT", "result": "830 ± 80", "unit": "nM"}
    ]},
    {"molecule": "CN(C)CCC=C1c2ccccc2CCc2ccccc21", "note": "[Amitriptyline, amitriptyline hydrochloride]", "values": [
      {"measurement": "IC50", "setting": "[2]", "result": "2200 ± 600", "unit": "nM"},
      {"measurement": "nH (Hill coefficient)", "setting": "[2]", "result": "1.50 ± 0.08"},
      {"measurement": "concentration in the rat brain", "setting": "[3]", "result": "1000 to 10000", "unit": "nM"},
      {"measurement": "Ki", "setting": "[4]; [8]", "result": "1100 ± 100", "unit": "nM"},
      {"measurement": "nH (Hill coefficient)", "setting": "[4]; [9]", "result": "0.98 ± 0.11"},
      {"measurement": "ΔG^20", "setting": "[4]; [10]", "result": "-7.96 ± 0.072", "unit": "kcal/mol"}
    ]},
    {"molecule": "CNC1(C)C2CCC(C2)C1(C)C", "note": "(racemic) [(±)-Mecamylamine, (±)-mecamylamine hydrochloride]", "values": [
      {"measurement": "IC50", "setting": "[2]", "result": "3000 ± 700", "unit": "nM"},
      {"measurement": "nH (Hill coefficient)", "setting": "[2]", "result": "1.17 ± 0.12"},
      {"measurement": "pKa", "setting": "[5]", "result": 11.4},
      {"measurement": "IC50", "setting": "[4]; IC50, desensitized state, presence of 1 μM (−)-cytisine", "result": "209000 ± 34000", "unit": "nM"},
      {"measurement": "IC50", "setting": "[4]; IC50, resting state, presence of k-BTx", "result": "135000 ± 19000", "unit": "nM"},
      {"measurement": "inhibition of specific [3H]imipramine binding", "setting": "[4]; at maximum concentration tested, resting and desensitized states", "result": "~ 70%"},
      {"measurement": "nH (Hill coefficient)", "setting": "[4]; [11]", "result": "0.58 ± 0.06"},
      {"measurement": "nH (Hill coefficient)", "setting": "[4]; [12]", "result": "0.53 ± 0.05"}
    ]},
    {"molecule": "CN(C)CCC=C1c2ccccc2COc2ccccc21", "note": "[Doxepin, doxepin hydrochloride]", "values": [
      {"measurement": "IC50", "setting": "[2]", "result": "6800 ± 1600", "unit": "nM"},
      {"measurement": "nH (Hill coefficient)", "setting": "[2]", "result": "1.32 ± 0.29"},
      {"measurement": "Ki", "setting": "[4]", "result": "2100 ± 200", "unit": "nM"},
      {"measurement": "nH (Hill coefficient)", "setting": "[4]; [9]", "result": "0.73 ± 0.05"},
      {"measurement": "ΔG^20", "setting": "[4]; [10]", "result": "-7.6 ± 0.072", "unit": "kcal/mol"}
    ]},
    {"molecule": "Clc1ccc(C2CC3CCC2N3)cn1", "note": "(racemic) [(±)-epibatidine, (±)-Epibatidine]", "values": [
      {"measurement": "nH (Hill coefficient)", "setting": "[2]; activation of hα4β2 AChR, Ca2+ influx in HEK293-hα4β2 cells", "result": "1.03 ± 0.04"}
    ]},
    {"molecule": "CN(C)CCCN1c2ccccc2CCc2ccccc21", "note": "[Imipramine, Imipramine hydrochloride]", "values": [
      {"measurement": "IC50", "setting": "[2]", "result": "5400 ± 1200", "unit": "nM"},
      {"measurement": "nH (Hill coefficient)", "setting": "[2]", "result": "1.39 ± 0.13"},
      {"measurement": "Ka", "setting": "[6]; [13]", "result": "2.52 ± 0.08", "unit": "µM⁻¹"},
      {"measurement": "koff", "setting": "[6]; [13]", "result": "0.076 ± 0.002", "unit": "s⁻¹"},
      {"measurement": "ΔG^20", "setting": "[6]; Epibatidine treated column (desensitized state), Eq. (4)", "result": "-8.58 ± 0.024", "unit": "kcal/mol"},
      {"measurement": "kon", "setting": "[6]; [13]", "result": "192000 ± 3000", "unit": "M⁻¹ s⁻¹"},
      {"measurement": "Ka", "setting": "[6]; [14]", "result": "2.54 ± 0.07", "unit": "µM⁻¹"},
      {"measurement": "koff", "setting": "[6]; [14]", "result": "0.09 ± 0.001", "unit": "s⁻¹"},
      {"measurement": "kon", "setting": "[6]; [14]", "result": "229000 ± 8000", "unit": "M⁻¹ s⁻¹"},
      {"measurement": "−TΔS°", "setting": "[7]; [13]", "result": "-5.93 kcal/mol and -5.93 ± 0.382 kcal/mol"},
      {"measurement": "Ea (dissociation process)", "setting": "[7]; [13]", "result": "2.96 ± 0.263", "unit": "kcal/mol"},
      {"measurement": "ΔH°", "setting": "[7]; [13]", "result": "-2.65 kcal/mol and -2.65 ± 0.382 kcal/mol"},
      {"measurement": "ΔG^20", "setting": "[7]; [13]", "result": "-8.58 ± 0.478", "unit": "kcal/mol"},
      {"measurement": "ΔH^+ (enthalpy change of the transition state)", "setting": "[7]; [13]", "result": "2.37 ± 0.263", "unit": "kcal/mol"},
      {"measurement": "−TΔS°", "setting": "[7]; [14]", "result": "-3.85 ± 0.55", "unit": "kcal/mol"},
      {"measurement": "Ea (dissociation process)", "setting": "[7]; [14]", "result": "4.54 ± 0.454", "unit": "kcal/mol"},
      {"measurement": "ΔH°", "setting": "[7]; [14]", "result": "-4.76 ± 0.55", "unit": "kcal/mol"},
      {"measurement": "ΔG^20", "setting": "[7]; [14]", "result": "-8.56 ± 0.693", "unit": "kcal/mol"},
      {"measurement": "ΔH^+ (enthalpy change of the transition state)", "setting": "[7]; [14]", "result": "3.97 ± 0.454", "unit": "kcal/mol"},
      {"measurement": "Ki", "setting": "[4]; Ki, desensitized state, presence of 1 μM (−)-cytisine", "result": "970 ± 100", "unit": "nM"},
      {"measurement": "Ki", "setting": "[4]; [8]", "result": "1100 ± 100", "unit": "nM"},
      {"measurement": "Ki", "setting": "[4]; Ki, resting state, presence of 0.1 μM k-BTx", "result": 930, "unit": "nM"},
      {"measurement": "nH (Hill coefficient)", "setting": "[4]; [11]", "result": "0.84 ± 0.07"},
      {"measurement": "ΔG^20", "setting": "[4]; desensitized state, presence of (−)-cytisine", "result": "-8.05 ± 0.048", "unit": "kcal/mol"},
      {"measurement": "nH (Hill coefficient)", "setting": "[4]; [9]", "result": "0.73 ± 0.04"},
      {"measurement": "ΔG^20", "setting": "[4]; [10]", "result": "-7.98 ± 0.048", "unit": "kcal/mol"},
      {"measurement": "nH (Hill coefficient)", "setting": "[4]; [12]", "result": "0.87 ± 0.07"}
    ]}
  ]
}
